The values below come from ChEMBL document CHEMBL4715827, “Structure-guided design of pyridoclax derivatives based on Noxa / Mcl-1 interaction mode” (Eur J Med Chem, 2018).

The source made the active and inactive calls. The rule behind the calls is not given here.

Experiment [1] has as its system IGROV1-R10. Kind of experiment: Pro-apoptotic activity in human IGROV1-R10 cells transfected with Bcl-xL siRNA assessed as morphological alteration at 25 uM measured after 24 hrs by DAPI staining based fluorescence microscopy analysis. The experiment is classed as functional, cell-based.
Experiment [2] is described as follows: Pro-apoptotic activity in human IGROV1-R10 cells transfected with control siRNA assessed as accumulation at sub G1 phase at 25 uM incubated for 24 hrs by propidium iodide staining based flow cytometry analysis (reference value: 4.5% ). The experiment is classed as functional.
For experiment [3], the system named is IGROV1-R10. As to the kind of experiment: Pro-apoptotic activity in human IGROV1-R10 cells transfected with Bcl-xL siRNA assessed as increase in cleaved PARP expression at 25 uM measured after 24 hrs by Western blot analysis. It is filed as functional, cell-based. On the technique in general: In western blotting, separated proteins are transferred to a membrane and probed.

Experiment [4] is described as follows: Pro-apoptotic activity in human IGROV1-R10 cells transfected with Bcl-xL siRNA assessed as condensed nuclei at 25 uM measured after 24 hrs by DAPI staining based fluorescence microscopy analysis relative to control. It is filed as functional.
The test system of experiment [5] is IGROV1-R10. As to the kind of experiment: Pro-apoptotic activity in human IGROV1-R10 cells transfected with Bcl-xL siRNA assessed as increase in cleaved caspase-3 expression at 25 uM measured after 24 hrs by Western blot analysis. It is filed as functional, cell-based.
Experiment [6] deals with Induced myeloid leukemia cell differentiation protein Mcl-1 (Homo sapiens) (UniProt Q07820). Kind of experiment: Inhibition of FAM-Bim peptide binding to MCL-1 in human MCF-7 cells assessed as disruption by BRET assay. The settings on record: MCF7. It is filed as cell-based. (In BRET a luciferase serves as donor, and the signal depends on an acceptor being close.)
Sequence of Induced myeloid leukemia cell differentiation protein Mcl-1 (Homo sapiens) (Q07820 whole entry): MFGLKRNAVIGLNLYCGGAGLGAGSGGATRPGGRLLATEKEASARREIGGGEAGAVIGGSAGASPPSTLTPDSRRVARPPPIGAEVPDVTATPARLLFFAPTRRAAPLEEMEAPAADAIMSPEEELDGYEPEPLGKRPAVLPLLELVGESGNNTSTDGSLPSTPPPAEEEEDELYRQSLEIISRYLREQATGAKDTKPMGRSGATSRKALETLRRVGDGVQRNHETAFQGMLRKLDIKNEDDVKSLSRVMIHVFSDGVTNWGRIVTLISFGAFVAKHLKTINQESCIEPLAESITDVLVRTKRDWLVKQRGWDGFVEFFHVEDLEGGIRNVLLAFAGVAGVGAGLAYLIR
Experiment [7] is described as follows: Pro-apoptotic activity in human IGROV1-R10 cells transfected with Bcl-xL siRNA assessed as accumulation at sub G1 phase at 25 uM incubated for 24 hrs by propidium iodide staining based flow cytometry analysis (reference value: 17% ). It is filed as functional. On the technique in general: A flow cytometer gives signals particle by particle.
A short description of experiment [8]: Pro-apoptotic activity in human IGROV1-R10 cells assessed as accumulation at sub G1 phase at 25 uM incubated for 24 hrs by propidium iodide staining based flow cytometry analysis (reference value: 2.8% ). The experiment is classed as functional.
A short description of experiment [9]: Pro-apoptotic activity in human IGROV1-R10 cells assessed as accumulation at sub G1 phase at 15 uM incubated for 24 hrs in presence of ABT-737 by propidium iodide staining based flow cytometry analysis (reference value: 10.8% ). It is filed as functional.
Experiment [10] in a line: Pro-apoptotic activity in human IGROV1-R10 cells assessed as accumulation at sub G1 phase at 10 uM incubated for 24 hrs in presence of ABT-737 by propidium iodide staining based flow cytometry analysis (reference value: 10.8% ). It is filed as functional.
A short description of experiment [11]: Pro-apoptotic activity in human IGROV1-R10 cells assessed as accumulation at sub G1 phase at 10 uM incubated for 24 hrs by propidium iodide staining based flow cytometry analysis (reference value: 2 % ). It is filed as functional.
Experiment [12] concerns SK-OV-3. As to the kind of experiment: Pro-apoptotic activity in human SKOV3 cells assessed as increase in caspase3/7 positive cells at 25 uM measured after 24 hrs in presence of ABT-737 by DAPI staining based fluorescence microscopy analysis. The experiment is classed as functional, cell-based.
The subject of experiment [13] is A2780. Kind of experiment: Pro-apoptotic activity in human A2780 cells assessed as increase in caspase3/7 positive cells at 25 uM measured after 24 hrs in presence of ABT-737 by DAPI staining based fluorescence microscopy analysis. It is filed as functional, cell-based.
A short description of experiment [14]: Pro-apoptotic activity in human IGROV1-R10 cells assessed as accumulation at sub G1 phase at 25 uM incubated for 24 hrs in presence of ABT-737 by propidium iodide staining based flow cytometry analysis (reference value: 21.2% ). The experiment is classed as functional.
Experiment [15] is described as follows: Pro-apoptotic activity in human IGROV1-R10 cells assessed as accumulation at sub G1 phase at 15 uM incubated for 24 hrs by propidium iodide staining based flow cytometry analysis (reference value: 2 % ). The experiment is classed as functional.

As to `Cc1cc(-c2ncc(-c3cccnc3)cc2/C=C/c2ccccc2)cnc1-c1cccc(CC(=O)O)c1`, the result in [1] and in experiment [5] was inactive. The Activity in experiment [2] is recorded as 6%; in experiment [4] it was 7.8%; in experiment [7], 14.5%. Further, the result in experiment [3] was Active. In addition, the inhibition result in experiment [6] was “inactive”.
For the compound `Cc1cc(-c2ncc(-c3cccnc3)cc2/C=C/c2ccccc2)cnc1-c1cccc(CC#N)c1`, in experiment [1], the outcome was inactive. Also, the Activity came to 6.5% in [2], 35.1% in experiment [4] and 43% in experiment [7]. For the same compound, the outcome in experiment [3] and in [5] was Active.
Turning to `Cc1cc(-c2ncc(-c3cccc(CC(=O)O)c3)cc2/C=C/c2ccccc2)cnc1-c1cccnc1`, in experiment [1], the outcome was inactive. Further, the values for the Activity in [2], in experiment [4] and in [7] were 4.6%, 31.7% and 46.8%, respectively. Moreover, the outcome in [3] and in experiment [5] was Active.
Consider `Cc1cc(-c2ncc(-c3cccc(O)c3)cc2/C=C/c2ccccc2)cnc1-c1cccnc1`, for which the result in [1] was inactive. The Activity is listed as 5.5% in experiment [2], 19.9% in experiment [4] and 37.5% in experiment [7]. For the same compound, the outcome in [3] and in [5] was Active.
On to `Cc1cc(-c2ncc(-c3cccc(C/C(N)=N/O)c3)cc2/C=C/c2ccccc2)cnc1-c1cccnc1`, for which the outcome in [1] was inactive. Moreover, the Activity is listed as 4.8% in experiment [2], 28% in [4] and 45.3% in experiment [7]. The result in [3] and in [5] was Active.
For the compound `Cc1cc(-c2ncc(-c3cccnc3)cc2/C=C/c2ccccc2)cnc1-c1cccc(O)c1`, the outcome in experiment [1] was inactive. Further, the Activity in experiment [2] was 12.5%; in [4] it was 35.9%; in experiment [7], 52.2%. Further, the outcome in [3] and in [5] was Active.
For the compound `Cc1cc(-c2ncc(-c3cccnc3)cc2/C=C/c2ccccc2)cnc1-c1cccnc1`, the result in experiment [1] was inactive. The outcome in experiment [3], in experiment [12], in experiment [13] and in [5] was Active. The Activity is 63.4% in experiment [4]; 6.46% in experiment [8]; 36.1% in experiment [9]; 22.5% in [10]; 2.5% in experiment [11]; 70.99% in experiment [14]. Also, the Activity worked out at 4.9% in experiment [15] and 62.76% in experiment [7].
For the compound `Cc1cc(-c2ncc(-c3cccc(CC#N)c3)cc2/C=C/c2ccccc2)cnc1-c1cccnc1`, the outcome in experiment [1] was inactive. Besides, the Activity was determined as 53% in experiment [2], 25.3% in experiment [4] and 36.9% in experiment [7]. Moreover, the outcome in experiment [3] and in experiment [5] was Active.
